# From ChEMBL document CHEMBL5303573, “Mapping human microbiome drug metabolism by gut bacteria and their genes” (Nature, 2019)
# Key:
# [1] = The drug is tested on Bifidobacterium longum subsp. Infantis strain: CCUG52486 for biotransformation. The drug concentrations were measured before and after a 12-h incubation by liquid-chromatography-coupled mass spectrometry (LC–MS); settings: 2 µM
# [2] = The drug is tested on Bifidobacterium ruminantium strain: fecal isolate for biotransformation. The drug concentrations were measured before and after a 12-h incubation by liquid-chromatography-coupled mass spectrometry (LC–MS); settings: 2 µM
# [3] = The drug is tested on Collinsella aerofaciens strain: ATCC25986 for biotransformation. The drug concentrations were measured before and after a 12-h incubation by liquid-chromatography-coupled mass spectrometry (LC–MS); settings: 2 µM
# [4] = The drug is tested on Collinsella intestinalis strain: DSM13280 for biotransformation. The drug concentrations were measured before and after a 12-h incubation by liquid-chromatography-coupled mass spectrometry (LC–MS); settings: 2 µM
# [5] = The drug is tested on Eggerthella lenta strain: ATCC25559 for biotransformation. The drug concentrations were measured before and after a 12-h incubation by liquid-chromatography-coupled mass spectrometry (LC–MS); settings: 2 µM
# [6] = The drug is tested on Alistipes indistinctus strain: DSM22520 for biotransformation. The drug concentrations were measured before and after a 12-h incubation by liquid-chromatography-coupled mass spectrometry (LC–MS); settings: 2 µM
# [7] = The drug is tested on Bacteroides caccae strain: ATCC43185 for biotransformation. The drug concentrations were measured before and after a 12-h incubation by liquid-chromatography-coupled mass spectrometry (LC–MS); settings: 2 µM
# [8] = The drug is tested on Bacteroides dorei strain: DSM17855 for biotransformation. The drug concentrations were measured before and after a 12-h incubation by liquid-chromatography-coupled mass spectrometry (LC–MS); settings: phocaeicola dorei, 2 µM
# [9] = The drug is tested on Bacteroides finegoldii strain: DSM17565 for biotransformation. The drug concentrations were measured before and after a 12-h incubation by liquid-chromatography-coupled mass spectrometry (LC–MS); settings: 2 µM
# [10] = The drug is tested on Bacteroides fragilis strain: HMW610 for biotransformation. The drug concentrations were measured before and after a 12-h incubation by liquid-chromatography-coupled mass spectrometry (LC–MS); settings: 2 µM
# [11] = The drug is tested on Bacteroides fragilis strain: HMW615 for biotransformation. The drug concentrations were measured before and after a 12-h incubation by liquid-chromatography-coupled mass spectrometry (LC–MS); settings: 2 µM
# [12] = The drug is tested on Bacteroides fragilis strain: ATCC43859 for biotransformation. The drug concentrations were measured before and after a 12-h incubation by liquid-chromatography-coupled mass spectrometry (LC–MS); settings: 2 µM
# [13] = The drug is tested on Bacteroides ovatus strain: ATCC8483 for biotransformation. The drug concentrations were measured before and after a 12-h incubation by liquid-chromatography-coupled mass spectrometry (LC–MS); settings: 2 µM
# [14] = The drug is tested on Bacteroides pectinophilus strain: ATCC43243 for biotransformation. The drug concentrations were measured before and after a 12-h incubation by liquid-chromatography-coupled mass spectrometry (LC–MS); settings: 2 µM
# [15] = The drug is tested on Bacteroides uniformis strain: ATCC8492 for biotransformation. The drug concentrations were measured before and after a 12-h incubation by liquid-chromatography-coupled mass spectrometry (LC–MS); settings: 2 µM
# [16] = The drug is tested on Bacteroides sp. WH2 strain: WH2 for biotransformation. The drug concentrations were measured before and after a 12-h incubation by liquid-chromatography-coupled mass spectrometry (LC–MS); settings: bacteroides sp. wh2, 12 h, 2 µM
# [17] = The drug is tested on Bacteroides xylanisolvens strain: DSM18836 for biotransformation. The drug concentrations were measured before and after a 12-h incubation by liquid-chromatography-coupled mass spectrometry (LC–MS); settings: 2 µM
# [18] = The drug is tested on Anaerotruncus colihominis strain: DSM17241 for biotransformation. The drug concentrations were measured before and after a 12-h incubation by liquid-chromatography-coupled mass spectrometry (LC–MS); settings: 2 µM
# [19] = The drug is tested on Blautia hansenii strain: DSM20583 for biotransformation. The drug concentrations were measured before and after a 12-h incubation by liquid-chromatography-coupled mass spectrometry (LC–MS); settings: 2 µM
# [20] = The drug is tested on Clostridium sp. strain: fecal isolate for biotransformation. The drug concentrations were measured before and after a 12-h incubation by liquid-chromatography-coupled mass spectrometry (LC–MS); settings: 2 µM
# [21] = The drug is tested on Clostridium sporogenes strain: ATCC15579 for biotransformation. The drug concentrations were measured before and after a 12-h incubation by liquid-chromatography-coupled mass spectrometry (LC–MS); settings: 2 µM
# [22] = The drug is tested on Coprococcus comes strain: ATCC27758 for biotransformation. The drug concentrations were measured before and after a 12-h incubation by liquid-chromatography-coupled mass spectrometry (LC–MS); assay type: ADME; parameters: dose 2 uM, timepoint 0 vs 12 hours; settings: 2 µM
# [23] = The drug is tested on Enterococcus faecalis strain: V583 for biotransformation. The drug concentrations were measured before and after a 12-h incubation by liquid-chromatography-coupled mass spectrometry (LC–MS); settings: 2 µM
# [24] = The drug is tested on Eubacterium hallii strain: DSM3353 for biotransformation. The drug concentrations were measured before and after a 12-h incubation by liquid-chromatography-coupled mass spectrometry (LC–MS); settings: anaerobutyricum hallii, 2 µM
# [25] = The drug is tested on Eubacterium ventriosum strain: ATCC27560 for biotransformation. The drug concentrations were measured before and after a 12-h incubation by liquid-chromatography-coupled mass spectrometry (LC–MS); assay type: ADME; parameters: dose 2 uM, timepoint 0 vs 12 hours; settings: 2 µM
# [26] = The drug is tested on Ruminococcus gnavus strain: ATCC29149 for biotransformation. The drug concentrations were measured before and after a 12-h incubation by liquid-chromatography-coupled mass spectrometry (LC–MS); settings: mediterraneibacter gnavus, 2 µM
# [27] = The drug is tested on Ruminococcus lactaris strain: ATCC29176 for biotransformation. The drug concentrations were measured before and after a 12-h incubation by liquid-chromatography-coupled mass spectrometry (LC–MS); settings: 2 µM
# [28] = The drug is tested on Ruminococcus torques strain: ATCC27756 for biotransformation. The drug concentrations were measured before and after a 12-h incubation by liquid-chromatography-coupled mass spectrometry (LC–MS); assay type: ADME; parameters: dose 2 uM, timepoint 0 vs 12 hours; settings: 2 µM
# [29] = The drug is tested on Subdoligranulum variabile strain: DSM15176 for biotransformation. The drug concentrations were measured before and after a 12-h incubation by liquid-chromatography-coupled mass spectrometry (LC–MS); settings: 2 µM
# [30] = The drug is tested on Edwardsiella tarda strain: ATCC23685 for biotransformation. The drug concentrations were measured before and after a 12-h incubation by liquid-chromatography-coupled mass spectrometry (LC–MS); settings: 2 µM
# [31] = The drug is tested on Enterobacter cancerogenus strain: ATCC35316 for biotransformation. The drug concentrations were measured before and after a 12-h incubation by liquid-chromatography-coupled mass spectrometry (LC–MS); settings: 2 µM
# [32] = The drug is tested on Escherichia coli strain: BW25113 for biotransformation. The drug concentrations were measured before and after a 12-h incubation by liquid-chromatography-coupled mass spectrometry (LC–MS); settings: 2 µM
# [33] = The drug is tested on Providencia stuartii strain: ATCC25827 for biotransformation. The drug concentrations were measured before and after a 12-h incubation by liquid-chromatography-coupled mass spectrometry (LC–MS); settings: 2 µM
# [34] = The drug is tested on Salmonella typhimurium strain: LT2 for biotransformation. The drug concentrations were measured before and after a 12-h incubation by liquid-chromatography-coupled mass spectrometry (LC–MS); settings: salmonella enterica subsp. enterica, 2 µM
# [35] = bacteroides eggerthii, 12 h, 2 µM
# Description: The drug is tested on Bacteroides eggerthii strain: DSM20697 for biotransformation. The drug concentrations were measured before and after a 12-h incubation by liquid-chromatography-coupled mass spectrometry (LC–MS)
# [36] = bacteroides fragilis, 12 h, 2 µM
# Description: The drug is tested on Bacteroides fragilis strain: 3397 (T10) for biotransformation. The drug concentrations were measured before and after a 12-h incubation by liquid-chromatography-coupled mass spectrometry (LC–MS)
# [37] = bacteroides fragilis, 12 h, 2 µM; remark: listed apart in the source
# Description: The drug is tested on Bacteroides fragilis strain: DS-208 for biotransformation. The drug concentrations were measured before and after a 12-h incubation by liquid-chromatography-coupled mass spectrometry (LC–MS)
# [38] = bacteroides intestinalis, 12 h, 2 µM
# Description: The drug is tested on Bacteroides intestinalis strain: DSM17393 for biotransformation. The drug concentrations were measured before and after a 12-h incubation by liquid-chromatography-coupled mass spectrometry (LC–MS)
# [39] = bacteroides stercoris, 12 h, 2 µM
# Description: The drug is tested on Bacteroides stercoris strain: ATCC43183 for biotransformation. The drug concentrations were measured before and after a 12-h incubation by liquid-chromatography-coupled mass spectrometry (LC–MS)
# [40] = bacteroides thetaiotaomicron, 12 h, 2 µM
# Description: The drug is tested on Bacteroides thetaiotaomicron strain: VPI-5482 for biotransformation. The drug concentrations were measured before and after a 12-h incubation by liquid-chromatography-coupled mass spectrometry (LC–MS)
# [41] = bacteroides thetaiotaomicron, 12 h, 2 µM; remark: listed apart in the source
# Description: The drug is tested on Bacteroides thetaiotaomicron strain: 3731 for biotransformation. The drug concentrations were measured before and after a 12-h incubation by liquid-chromatography-coupled mass spectrometry (LC–MS)
# [42] = bacteroides thetaiotaomicron, 12 h, 2 µM; remark: listed apart in the source
# Description: The drug is tested on Bacteroides thetaiotaomicron strain: 7330 for biotransformation. The drug concentrations were measured before and after a 12-h incubation by liquid-chromatography-coupled mass spectrometry (LC–MS)
# [43] = parabacteroides johnsonii, 12 h, 2 µM
# Description: The drug is tested on Parabacteroides johnsonii strain: DSM18315 for biotransformation. The drug concentrations were measured before and after a 12-h incubation by liquid-chromatography-coupled mass spectrometry (LC–MS)
# [44] = enterocloster bolteae, 12 h, 2 µM
# [45] = akkermansia muciniphila, 12 h, 2 µM
# Description: The drug is tested on Akkermansia muciniphila strain: ATCC BAA-835 for biotransformation. The drug concentrations were measured before and after a 12-h incubation by liquid-chromatography-coupled mass spectrometry (LC–MS)
# [46] = The drug is tested on Clostridium asparagiforme strain: DSM15981 for biotransformation. The drug concentrations were measured before and after a 12-h incubation by liquid-chromatography-coupled mass spectrometry (LC–MS); assay type: ADME; parameters: dose 2 uM, timepoint 0 vs 12 hours; settings: enterocloster asparagiformis, 2 µM
# [47] = The drug is tested on Clostridium hathewayi strain: DSM13479 for biotransformation. The drug concentrations were measured before and after a 12-h incubation by liquid-chromatography-coupled mass spectrometry (LC–MS); settings: hungatella hathewayi, 2 µM
# [48] = The drug is tested on Clostridium ramosum strain: DSM1402 for biotransformation. The drug concentrations were measured before and after a 12-h incubation by liquid-chromatography-coupled mass spectrometry (LC–MS); settings: thomasclavelia ramosa, 2 µM
# [49] = The drug is tested on Clostridium scindens strain: ATCC35704 for biotransformation. The drug concentrations were measured before and after a 12-h incubation by liquid-chromatography-coupled mass spectrometry (LC–MS); settings: 2 µM
# [50] = The drug is tested on Clostridium spiroforme strain: DSM1552 for biotransformation. The drug concentrations were measured before and after a 12-h incubation by liquid-chromatography-coupled mass spectrometry (LC–MS); settings: thomasclavelia spiroformis, 2 µM
# [51] = The drug is tested on Clostridium symbiosum strain: ATCC14940 for biotransformation. The drug concentrations were measured before and after a 12-h incubation by liquid-chromatography-coupled mass spectrometry (LC–MS); settings: 2 µM
# [52] = clostridioides difficile, 12 h, 2 µM
structure (smiles),measurement,setting,value
COC(=O)C(c1ccccc1)C1CCCCN1 (centres undefined) [METHYLPHENIDATE],Bacterial Biotransformation,[1],Compound NOT metabolized
same,Bacterial Biotransformation,[2],Compound metabolized
same,Bacterial Biotransformation,[3],Compound NOT metabolized
same,Bacterial Biotransformation,[4],Compound NOT metabolized
same,Bacterial Biotransformation,[5],Compound metabolized
same,Bacterial Biotransformation,[6],Compound NOT metabolized
same,Bacterial Biotransformation,[7],Compound NOT metabolized
same,Bacterial Biotransformation,[8],Compound NOT metabolized
same,Bacterial Biotransformation,[9],Compound NOT metabolized
same,Bacterial Biotransformation,[10],Compound NOT metabolized
same,Bacterial Biotransformation,[11],Compound NOT metabolized
same,Bacterial Biotransformation,[12],Compound NOT metabolized
same,Bacterial Biotransformation,[13],Compound NOT metabolized
same,Bacterial Biotransformation,[14],Compound NOT metabolized
same,Bacterial Biotransformation,[15],Compound NOT metabolized
same,Bacterial Biotransformation,[16],Compound NOT metabolized
same,Bacterial Biotransformation,[17],Compound NOT metabolized
same,Bacterial Biotransformation,[18],Compound NOT metabolized
same,Bacterial Biotransformation,[19],Compound metabolized
same,Bacterial Biotransformation,[20],Compound metabolized
same,Bacterial Biotransformation,[21],Compound metabolized
same,Bacterial Biotransformation,[22],Compound NOT metabolized
same,Bacterial Biotransformation,[23],Compound NOT metabolized
same,Bacterial Biotransformation,[24],Compound NOT metabolized
same,Bacterial Biotransformation,[25],Compound NOT metabolized
same,Bacterial Biotransformation,[26],Compound NOT metabolized
same,Bacterial Biotransformation,[27],Compound NOT metabolized
same,Bacterial Biotransformation,[28],Compound NOT metabolized
same,Bacterial Biotransformation,[29],Compound NOT metabolized
same,Bacterial Biotransformation,[30],Compound NOT metabolized
same,Bacterial Biotransformation,[31],Compound NOT metabolized
same,Bacterial Biotransformation,[32],Compound metabolized
same,Bacterial Biotransformation,[33],Compound NOT metabolized
same,Bacterial Biotransformation,[34],Compound NOT metabolized
same,Bacterial Biotransformation,[35],Compound NOT metabolized
same,Bacterial Biotransformation,[36],Compound NOT metabolized
same,Bacterial Biotransformation,[37],Compound NOT metabolized
same,Bacterial Biotransformation,[38],Compound NOT metabolized
same,Bacterial Biotransformation,[39],Compound NOT metabolized
same,Bacterial Biotransformation,[40],Compound NOT metabolized
same,Bacterial Biotransformation,[41],Compound NOT metabolized
same,Bacterial Biotransformation,[42],Compound NOT metabolized
same,Bacterial Biotransformation,[43],Compound metabolized
same,Bacterial Biotransformation,[44],Compound NOT metabolized
same,Bacterial Biotransformation,[45],Compound NOT metabolized
Br.NC(=O)C(c1ccccc1)(c1ccccc1)[C@@H]1CCN(CCc2ccc3c(c2)CCO3)C1 [DARIFENACIN HYDROBROMIDE],Bacterial Biotransformation,[46],Compound NOT metabolized
same,Bacterial Biotransformation,[47],Compound NOT metabolized
same,Bacterial Biotransformation,[48],Compound NOT metabolized
same,Bacterial Biotransformation,[49],Compound NOT metabolized
same,Bacterial Biotransformation,[50],Compound NOT metabolized
same,Bacterial Biotransformation,[21],Compound NOT metabolized
same,Bacterial Biotransformation,[51],Compound NOT metabolized
same,Bacterial Biotransformation,[44],Compound NOT metabolized
same,Bacterial Biotransformation,[52],Compound NOT metabolized
